Reference: patent US20260317309A1, “N-HETEROCYLIC GPCR RECEPTOR AGONISTS, PHARMACEUTICAL COMPOSITIONS COMPRISING THE SAME, AND METHODS FOR THEIR USE” (Carmot Therapeutics, Inc., priority 2022, published 2026)

Molecular target: T1, human GLP-1 receptor (Homo sapiens, UniProt P43220)
T1 construct: expressed in transfected cells
Assay: GLP-1R cAMP assay (cAMP accumulation in CHO cells stably overexpressing the human GLP-1 receptor, HitHunter kit)
Format: cell-based
Details: CHO cells stably overexpressing human GLP-1R, 30 min, 20-point dose response in triplicate
Experimental: CAMP accumulation was measured in Chinese hamster ovary (CHO) cells (10,000 cells/well) stably overexpressing the human GLP-1 receptor using the HitHunter CAMP Assay for Small Molecules Kit (Eurofins). Briefly, cells were grown in Ham's F12 Nutrient Mix with 10% FBS, and lifted with Cell Dissociation Buffer, Enzyme free, PBS based (ThermoFisher). Cells were pelleted, and resuspended in Hank's buffered saline solution with 10 mM HEPES, and 625 μM 3-isobutyl-1-methylxanthine. The anti-cAMP antibody reagent was then added to cells at a 1:2 ratio and 5 μL of mixture was seeded in 384-well small volume white assay plates, at 10,000 cells/well. Cells were then treated with 50 nL compound using an ECHO 550 acoustic dispenser (Labcyte) in a 20-point dose response format in triplicate for 30 min. Cells were then lysed, and detection reagents added according to the manufacturer's protocol. After overnight incubation, luminescence was measured using a Perkin Elmer Envision plate reader. Dose response curves were analyzed using GraphPad Prism 9.0.
In the Table, EC50 values are designated as follows: • A: 0 nM<EC50<0.1 nM; • B: 0.1 nM≤EC50<1.0 nM; • C: 1.0 nM≤EC50<10.0 nM; • D: 10.0 nM≤EC50<100 nM; • E: 100 nM≤EC50<500 nM; and • F: ≥500 nM

T1 sequence (P43220 24-463): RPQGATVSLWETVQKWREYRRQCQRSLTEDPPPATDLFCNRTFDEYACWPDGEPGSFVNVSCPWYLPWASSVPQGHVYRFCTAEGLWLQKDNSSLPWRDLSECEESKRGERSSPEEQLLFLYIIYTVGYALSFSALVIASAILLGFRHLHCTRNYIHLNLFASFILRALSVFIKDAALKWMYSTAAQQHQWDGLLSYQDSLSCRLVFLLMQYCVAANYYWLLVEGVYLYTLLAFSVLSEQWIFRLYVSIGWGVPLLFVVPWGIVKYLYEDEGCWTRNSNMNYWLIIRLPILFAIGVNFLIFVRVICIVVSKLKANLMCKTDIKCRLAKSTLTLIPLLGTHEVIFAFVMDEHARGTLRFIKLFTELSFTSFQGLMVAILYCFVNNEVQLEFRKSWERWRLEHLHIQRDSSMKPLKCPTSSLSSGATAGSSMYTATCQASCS

| EC50 | Compound |
| --- | --- |
| < 0.1 nM | C[C@H]1C[C@@H](Oc2ccnc(COc3ccc(F)cc3C#N)n2)CCN1Cc1nc2ccc(C(=O)O)c(F)c2n1C[C@@H]1CCO1 [Compound 573, 2-{[(2S,4S)-4-({2-[(2-cyano-4-fluorophenoxy)methyl]pyrimidin-4-yl}oxy)-2-methylpiperidin-1-yl]methyl}-7-fluoro-1-{[(2S)-oxetan-2-yl]methyl}-1H-1,3-benzodiazole-6-carboxylic acid] |
| 1 to 10 nM | C[C@H]1C[C@@H](Oc2ccnc(COc3ccc(F)cc3C#N)n2)CCN1Cc1nc2cnc(C(=O)O)cc2n1C[C@@H]1CCO1 [Compound 574, 2-{[(2S,4S)-4-({2-[(2-cyano-4-fluorophenoxy)methyl]pyrimidin-4-yl}oxy)-2-methylpiperidin-1-yl]methyl}-1-{[(2S)-oxetan-2-yl]methyl}-1H-imidazo[4,5-c]pyridine-6-carboxylic acid] |
| 0.1 to 1 nM | C[C@H]1C[C@@H](Oc2ccnc(COc3ccc(F)cc3F)n2)CCN1Cc1nc2ccc(C(=O)O)cc2n1C[C@H]1CCOC1 [Compound 575, 2-{[(2S,4S)-4-({2-[(2,4-Difluorophenoxy)methyl]pyrimidin-4-yl}oxy)-2-methylpiperidin-1-yl]methyl}-1-{[(3R)-oxolan-3-yl]methyl}-1H-1,3-benzodiazole-6-carboxylic acid] |
| < 0.1 nM | C[C@H]1C[C@@H](Oc2ccnc(COc3ccc(F)cc3F)n2)CCN1Cc1nc2c(F)cc(C(=O)O)cc2n1C[C@@H]1CCO1 [Compound 576, 2-{[(2S,4S)-4-({2-[(2,4-di-fluorophenoxy)methyl]pyrimidin-4-yl}oxy)-2-methylpiperidin-1-yl]methyl}-4-fluoro-1-{[(2S)-oxetan-2-yl]methyl}-1H-1,3-benzodiazole-6-carboxylic acid] |
| 0.1 to 1 nM | CO[C@H]1COC[C@H]1n1c(CN2CC[C@H](Oc3ccnc(COc4ccc(F)cc4F)n3)C[C@@H]2C)nc2ccc(C(=O)O)cc21 [Compound 577, 2-(((2S,4S)-4-((2-((2,4-Difluorophenoxy)methyl)pyrimidin-4-yl)oxy)-2-methylpiperidin-1-yl)methyl)-1-((3R,4R)-4-methoxytetrahydrofuran-3-yl)-1H-benzo[d]imidazole-6-carboxylic acid] |
| 0.1 to 1 nM | C[C@H]1C[C@@H](Oc2ccnc(COc3ccc(C#N)cc3F)n2)CCN1Cc1nc2ccc(C(=O)O)cc2n1C[C@@H]1CCOC1 [Compound 578, 2-{[(2S,4S)-4-({2-[(4-cyano-2-fluorophenoxy)methyl]pyrimidin-4-yl}oxy)-2-methylpiperidin-1-yl]methyl}-1-{[(3S)-oxolan-3-yl]methyl}-1H-1,3-benzodiazole-6-carboxylic acid] |
| 0.1 to 1 nM | C[C@H]1C[C@@H](Oc2ccnc(COc3ccc(C#N)cc3F)n2)CCN1Cc1nc2ccc(C(=O)O)cc2n1C[C@@H]1CCCO1 [Compound 579, 2-{[(2S,4S)-4-({2-[(4-cyano-2-fluorophenoxy)methyl]pyrimidin-4-yl}oxy)-2-methylpiperidin-1-yl]methyl}-1-{[(2S)-oxolan-2-yl]methyl}-1H-1,3-benzodiazole-6-carboxylic acid] |
| 1 to 10 nM | N#Cc1ccc(OCc2nccc(OC3CCN(Cc4nc5cnc(C(=O)O)cc5n4C[C@@H]4CCO4)CC3)n2)c(F)c1 [Compound 580, 2-{[4-({2-[(4-Cyano-2-fluorophenoxy)methyl]pyrimidin-4-yl}oxy)piperidin-1-yl]methyl}-1-{[(2S)-oxetan-2-yl]methyl}-1H-imidazo[4,5-c]pyridine-6-carboxylic acid] |
| < 0.1 nM | C[C@H]1C[C@@H](Oc2nc(COc3ccc(F)cc3F)ncc2F)CCN1Cc1nc2ccc(C(=O)O)cc2n1C[C@@H]1CCO1 [Compound 581, 2-{[(2S,4S)-4-({2-[(2,4-difluorophenoxy)methyl]-5-fluoropyrimidin-4-yl}oxy)-2-methylpiperidin-1-yl]methyl}-1-{[(2S)-oxetan-2-yl]methyl}-1H-1,3-benzodiazole-6-carboxylic acid] |
| 0.1 to 1 nM | C[C@H]1C[C@@H](Oc2ccnc(COc3ccc(F)cc3F)n2)CCN1Cc1nc2ccc(C(=O)O)cc2n1CC1(F)COC1 [Compound 582, 2-{[(2S,4S)-4-({2-[(2,4-Difluorophenoxy)methyl]pyrimidin-4-yl}oxy)-2-methylpiperidin-1-yl]methyl}-1-[(3-fluorooxetan-3-yl)methyl]-1H-1,3-benzodiazole-6-carboxylic acid] |
| 0.1 to 1 nM | C[C@H]1C[C@@H](Oc2ccnc(COc3ccc(F)cc3F)n2)CCN1Cc1nc2ccc(C(=O)O)cc2n1CC1(C(F)F)COC1 [Compound 583, 1-{[3-(difluoromethyl)oxetan-3-yl]methyl}-2-{[(2S,4S)-4-({2-[(2,4-difluorophenoxy)methyl]pyrimidin-4-yl}oxy)-2-methylpiperidin-1-yl]methyl}-1H-1,3-benzodiazole-6-carboxylic acid] |
| 0.1 to 1 nM | C[C@H]1C[C@@H](Oc2ccnc(COc3ccc(F)cc3F)n2)CCN1Cc1nc2ccc(C(=O)O)cc2n1C[C@@H]1CCOC1 [Compound 584, 2-{[(2S,4S)-4-({2-[(2,4-Difluorophenoxy)methyl]pyrimidin-4-yl}oxy)-2-methylpiperidin-1-yl]methyl}-1-{[(3S)-oxolan-3-yl]methyl}-1H-1,3-benzodiazole-6-carboxylic acid] |
| 0.1 to 1 nM | Cc1cc2nc(CN3CC[C@H](Oc4ccnc(COc5ccc(F)cc5F)n4)C[C@@H]3C)n(C[C@@H]3CCO3)c2cc1C(=O)O [Compound 585, 2-{[(2S,4S)-4-({2-[(2,4-Difluorophenoxy)methyl]pyrimidin-4-yl}oxy)-2-methylpiperidin-1-yl]methyl}-5-methyl-1-{[(2S)-oxetan-2-yl]methyl}-1H-1,3-benzodiazole-6-carboxylic acid] |
| 1 to 10 nM | CC[C@@H]1C[C@H](Oc2ccnc(COc3ccc(C#N)cc3F)n2)CCN1Cc1nc2ccc(C(=O)O)cc2n1C[C@@H]1CCO1 [Compound 586, 2-{[(2R,4R)-4-({2-[(4-Cyano-2-fluorophenoxy)methyl]pyrimidin-4-yl}oxy)-2-ethylpiperidin-1-yl]methyl}-1-{[(2S)-oxetan-2-yl]methyl}-1H-1,3-benzodiazole-6-carboxylic acid] |
| < 0.1 nM | CC[C@H]1C[C@@H](Oc2ccnc(COc3ccc(C#N)cc3F)n2)CCN1Cc1nc2ccc(C(=O)O)cc2n1C[C@@H]1CCO1 [Compound 587, 2-{[(2S,4S)-4-({2-[(4-Cyano-2-fluorophenoxy)methyl]pyrimidin-4-yl}oxy)-2-ethylpiperidin-1-yl]methyl}-1-{[(2S)-oxetan-2-yl]methyl}-1H-1,3-benzodiazole-6-carboxylic acid] |
| < 0.1 nM | C[C@H]1C[C@@H](Oc2ccnc(COc3ccc(F)cc3F)n2)CCN1Cc1nc2ccc(C(=O)O)cc2n1CCOCC(F)(F)F [Compound 588, 2-{[(2S,4S)-4-({2-[(2,4-Difluorophenoxy)methyl]pyrimidin-4-yl}oxy)-2-methylpiperidin-1-yl]methyl}-1-[2-(2,2,2-trifluoroethoxy)ethyl]-1H-1,3-benzodiazole-6-carboxylic acid] |
| 0.1 to 1 nM | C[C@H]1C[C@@H](Oc2ccnc(COc3ccc(F)cc3F)n2)CCN1Cc1nc2ccc(C(=O)O)cc2n1C[C@@H]1CCCO1 [Compound 589, 2-{[(2S,4S)-4-({2-[(2,4-Difluorophenoxy)methyl]pyrimidin-4-yl}oxy)-2-methylpiperidin-1-yl]methyl}-1-{[(2S)-oxolan-2-yl]methyl}-1H-1,3-benzodiazole-6-carboxylic acid] |
